Measurements: patent publication US10335380B2, “Compounds suitable for the treatment of myeloproliferative neoplasms as well as methods for the diagnosis/prognosis of myeloproliferative neoplasms” (CNIC Fundacion Centro Nacional De investigaciones …, priority 2013, dated 2019)

Assays:
[1] = system: CD45+ haematopoietic cells from BM of Nes-gfp;Mx1-cre;JAK2-V617F mice and control littermates; assay: Colony-forming units in culture (CFU-C) with drug added in vitro; assay type: cell-based, mouse; details: scored after one week in culture
Description: Colony-forming units in culture (CFU-C) assay was performed. […] Colonies of more than 50 cells were scored after 7 days of incubation at 37° C., 5% CO2, 20% O2 in a water-jacketed incubator. For CFU-F assays, BM CD45− Ter119− cells were plated into 6-well dishes and cultured in maintenance medium (α-MEM, 15% FCS with antibiotics). After 10-12 days in culture, adherent cells were fixed with 100% methanol and stained with Giemsa stain (Sigma) to reveal fibroblastic clusters. Colonies with more than 50 cells were scored as CFU-F.

β2 receptors = β2 receptors (Homo sapiens, UniProt P07550); details: read-out: Ki for β2 receptors; cited from earlier work
[2] = system: HSCs and MPN-initiating cells; assay: Competitive repopulation assays using limiting cell dilutions; assay type: in vivo
Description: For quantification of HSC, BM cells from treated mice were used for competitive repopulation assays using limiting cell dilutions. Briefly, CD45.1+ competitor BM cells […] were transplanted into lethally irradiated CD45.2+ recipient mice, after mix with […] and 4×10^3 donor BM cells. Peripheral blood chimerism was assessed by flow cytometry every 2-4 weeks. Mice were sacrificed 16 weeks after the transplant and the BM LSK cell chimerism was assessed by flow cytometry. A minimum of 5% CD45.2+ chimerism in the LSK cell compartment was considered as positive in recipients of control BM cells. In recipients of mutant BM, mice were considered as positive (“leukaemic”) above 50% CD45.2+ chimerism. The software LCalc (StemCell Technologies) was used for quantification of HSCs and MPN-initiating cells in control and mutant donor BM, respectively.

[3] = system: mice transplanted with MPN BM cells (JAK2-V617F); assay: In vivo pharmacological treatments of mice transplanted with MPN (Mx1-cre;JAK2-V617F) BM cells; design: species or system mouse
Description: In Mx1-cre; JAK2-V617F double-transgenic mice, expression of the human JAK2-V617F mutation is driven by the endogenous Jak2 promoter and can be conditionally expressed in haematopoietic cells upon Myxovirus resistance-1 (Mx1)-driven Cre recombinase activation by polyinosine-polycytosine (plpC). PlpC-induced transgenic mice and wild-type mice transplanted with BM cells from these mice develop progressive symptoms of PV19,20.
Age-matched, female wild-type C57BL/6J or Nes-gfp mice were used as recipients in bone marrow (BM) transplantation assays and for in vivo pharmacological treatments. […] Vehicle (saline solution) daily injections were performed in the same way. Unless indicated, treatment was initiated 4 weeks posttransplant, when animals evidenced peripheral blood signs of MPN. Mice were randomly distributed prior to treatment initiation, and disease development was monitored over time in peripheral blood samples, using an automated blood counter. […] The neuroprotective drug 4-methylcatechol (10 μg kg-1, i.p.) was injected once daily. The JAK inhibitor INCB018424 (S-Ruxilitinib, Abmole Bioscience) was administered by oral gavage (30 mg kg-1, twice per day separated 10-12 hours) in 0.5% hydroxypropylmethylcellulose (Sigma) after solubilisation in DMSO. The IL-1 receptor antagonist (Kineret, Sobi, Stockholm, Sweden) was administered by subcutaneous osmotic pumps (Alzet) infusing a continuous dosing of 40 mg kg-1 per day. Mice were sacrificed at different time points and subjected to complete necropsy; BM and spleen were analysed by histology and flow cytometry; femora and skull were used for immunostainings, and haematopoietic and stromal cells were additionally used for functional assays ex vivo.
BM cell extraction, flow cytometry and fluorescence-activated cell sorting For haematopoietic cell recovery, bones were crushed in a mortar, filtered through a 40-μm mesh to obtain single cell suspensions, and depleted of red blood cells by lysis in 0.15 M NH4Cl for 10 min at 4° C. Spleen samples were homogenised and filtered prior to lysis; blood samples were directly lysed. Cells (1-2×10^6 cells per sample) were incubated with the appropriate dilution (2-5 μg ml-1) of fluorescent antibody conjugates and 4′,6-diamidino-2-phenylindole (DAPI) for dead cell exclusion, and analysed on LSRFortessa flow cytometer (BD Biosciences, Franklin Lakes, N.J.) equipped with FACSDiva Software (BD Biosciences). […] Biotinylated antibodies were detected with fluorochrome-conjugated streptavidin (BD Biosciences). Phenotypic populations of HSC were defined as long-term haematopoietic stem cells (HSCs) (lin− Sca1+c-kit+ (LSK) CD34− Flt3−), short-term HSCs (LSK CD34+ Flt3−) and multipotent progenitors (MPP) (LSK CD34+ Flt3+).
Cells were filtered through a 40-μm mesh and erythrocytes were lysed as previously described. The resulting bone marrow-enriched cell suspensions were pelleted, washed and resuspended in PBS buffer containing 2% foetal calf serum (FCS) for further analyses. […] BM stromal CD45− CD31− Ter119− cells were further purified according to GFP fluorescence using a FACS Aria cell sorter (BD Bioscience). For the determination of apoptotic cells, samples were washed with PBS after surface antibody staining and subsequently stained with Annexin V-Pacific Blue and SYTOX AADvanced (Invitrogen, Life Technologies, Paisley, UK). For functional assays, cells were enriched by immunomagnetic depletion using biotinylated CD45 and Ter119. For immunophenotypic characterisation, total BM samples were studied by flow cytometry using the following additional antibodies: CD63 (NVG-2), CD105 (MJ7/18), CD140a (APA5), Vcam, CD51 (RMV-7), all from Biolegend; and CD90.2 from BD Biosciences.
Immunofluorescence staining of cryostat sections was performed. For whole mount staining of the calvaria, all incubation times were extended. The antibodies used were TH (Rabbit pAb, Millipore) and GFAP (Rabbit pAb, Dako).

β1 receptors = β1 receptors (Homo sapiens, UniProt P08588); details: read-out: Ki for β1 receptors; cited from earlier work
[4] = advanced MPN, BRL37344 started upon thrombocytosis
[5] = symptomatic MPN mice, chronic BRL37344 2 mg kg-1 i.p. twice a day

Sequence of β2 receptors (P07550 whole entry): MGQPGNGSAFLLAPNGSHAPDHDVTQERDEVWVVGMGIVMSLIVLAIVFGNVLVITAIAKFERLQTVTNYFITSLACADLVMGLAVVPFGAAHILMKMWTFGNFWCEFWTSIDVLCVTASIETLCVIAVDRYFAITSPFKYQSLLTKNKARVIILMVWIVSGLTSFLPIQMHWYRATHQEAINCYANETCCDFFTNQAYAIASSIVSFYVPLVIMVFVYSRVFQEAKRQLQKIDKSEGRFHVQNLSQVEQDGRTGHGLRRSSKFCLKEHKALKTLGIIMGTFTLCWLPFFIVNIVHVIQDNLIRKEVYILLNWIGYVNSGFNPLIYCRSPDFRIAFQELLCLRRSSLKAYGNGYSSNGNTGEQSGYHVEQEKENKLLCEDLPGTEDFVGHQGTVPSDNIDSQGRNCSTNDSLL
Sequence of β1 receptors (P08588 whole entry): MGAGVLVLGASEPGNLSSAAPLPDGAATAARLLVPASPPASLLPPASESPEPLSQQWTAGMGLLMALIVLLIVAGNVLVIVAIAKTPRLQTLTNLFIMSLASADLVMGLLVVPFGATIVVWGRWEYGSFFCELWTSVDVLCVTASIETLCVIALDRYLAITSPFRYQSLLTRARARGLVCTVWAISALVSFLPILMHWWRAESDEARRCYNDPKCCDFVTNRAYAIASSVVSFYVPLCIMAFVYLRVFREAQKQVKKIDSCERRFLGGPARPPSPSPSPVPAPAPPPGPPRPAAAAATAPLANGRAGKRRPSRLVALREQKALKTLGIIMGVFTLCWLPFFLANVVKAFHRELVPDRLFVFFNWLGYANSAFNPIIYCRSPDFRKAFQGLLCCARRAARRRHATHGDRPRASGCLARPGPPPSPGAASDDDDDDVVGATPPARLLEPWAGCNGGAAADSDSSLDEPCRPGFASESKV

C[C@H](Cc1ccc(OCC(=O)O)cc1)NC[C@H](O)c1cccc(Cl)c1 [BRL37344, [4-[(2R)-2-[[(2R)-2-(3-clorophenyl)-2-hydroxyethyl]amino]propyl]phenoxy]acetic acid]
growth of cultured haematopoietic progenitors (CFU-C) [1]: neither 4-methylcatechol nor BRL37344 affected | Ki (β2 receptors): 1.12 µM | reduction in leukemic stem cells (MPN-initiating cell frequency) ([2]; BM cells from BRL37344-treated versus vehicle-treated MPN mice, 16 weeks after transplantation): 4.5 fold | normal HSC BM number ([2]; control mice treated with BRL37344 over 4 weeks, starting 11 weeks after the transplant, non-significant): does not change | incipient MPN signs (haematological parameters) ([3]; 8 weeks after transplantation, treatment for the last 4 weeks): improved | IL-1β in BM supernatant ([3]; BRL37344, 4 weeks, FIG. 4e): reduced | BM Nes-GFP+ cell number ([3]; BRL37344, 8 weeks, FIG. 4f): restored | Cxcl12 levels in BM ([3]; BRL37344, 16 weeks, FIG. 4g): increased | mutant haematopoietic progenitors (LSK cells, LT- and ST-HSCs) ([3]; BRL37344 administered at thrombocytotic stage, FIG. 4k): efficiently decreased | MPN progression ([3]; BRL37344 or Mirabegron 2 mg kg-1 i.p. twice a day): blocks | neuroglial gene expression (Mbp, Mobp, Pleckhb1 mRNA) in BM Nes-GFP+ cells from MPN mice ([3]; BRL37344 over 8 weeks, starting 4 weeks after transplantation): do not express | Schwann cell program activation in BM nestin+ cells ([3]; BRL37344 over 8 weeks, starting 4 weeks after transplantation, FIG. 11c): blocked | BM Schwann cells (Gfap immunostaining) [3, 4]: rescued | BM interleukin-1β [3, 4]: reduced | erythrocytosis [3, 4]: reduced | fibrosis and osteosclerosis [3, 4]: reduced | neutrophilia [3, 4]: reduced | thrombocytosis [3, 4]: reduced | BM fibrosis: excessive bone and fibroblastic tissue (reticulin, Van Gieson) ([3]; chronic BRL37344 versus vehicle-injected mice with severe fibrosis): virtually devoid of excessive bone and fibroblastic tissue | mutant haematopoietic progenitor expansion ([3]; early treatment, 4 weeks, BRL37344 2 mg kg-1 twice a day, 4-methylcatechol 10 μg kg-1 once daily): prevented | mutant haematopoietic progenitors ([3]; long-term BRL37344 treatment, 16 weeks): efficiently decreased | JAK2-V617F+ HSC expansion ([3]; long-term BRL37344 treatment, 16 weeks, 2 mg kg-1 twice a day i.p.): inhibits | MPN-associated thrombocytosis [3, 5]: prevented | red blood cell reduction [3, 5]: delayed | MPN-associated neutrophilia ([3]; symptomatic MPN mice, treatment started 4 weeks after transplantation, BRL37344 2 mg kg-1 i.p. twice a day, 4-methylcatechol 10 μg kg-1 i.p. once daily): prevented | Ki (β1 receptors): 1.75 µM
